Data from patent US6358885B1, “Substituted phenylheterocyclic herbicides” (Mississippi State University, priority 1992, dated 2002).

Experiments:
downy brome = assay: Test C preemergence/postemergence greenhouse plant response rating 0 to 100; assay type: in vivo, Bromus tectorum; settings: POSTEMERGENCE; for Plant response rating Downy Brome: 0 to 100 scale
Method in brief: (§1)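 Compounds in non-phytotoxic solvent went onto sandy loam before emergence (seeded one day earlier) or onto plants at the one-to-four leaf stage. Duck salad was treated via flood water (~2.5 cm, maintained) over silt loam.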

soybean = assay: as above; assay type: in vivo, Glycine max; settings: POSTEMERGENCE; for Plant response rating, Soybean: 0 to 100 scale
Method in brief: as §1

chickweed = assay: as above; assay type: in vivo, Stellaria media; settings: POSTEMERGENCE; for Plant response rating, Chickweed: 0 to 100 scale
Method in brief: as §1

purple nutsedge = assay: Test B preemergence/postemergence greenhouse plant response rating 0 to 10; assay type: in vivo, Cyperus rotundus; settings: 0 to 10 scale
Method in brief: (§2)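 Test chemicals, dissolved in a non-phytotoxic solvent, were applied to soil at planting and, at the same time, over foliage of seedlings at the one to four leaf stage.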

rape = assay: Test C preemergence/postemergence greenhouse plant response rating 0 to 100; assay type: in vivo, Brassica napus; settings: POSTEMERGENCE; for Plant response rating, Rape: 0 to 100 scale
Method in brief: as §1

umbrella sedge = assay: Test C flood test plant response rating 0 to 100; assay type: in vivo, Cyperus difformis; settings: for Plant response rating (0 to 100), Umbrella sedge: under POSTEMERGENCE head (flood test species); for Plant response rating Umbrella sedge: flood test species listed under POSTEMERGENCE, 0 to 100 scale
Method in brief: (§3)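 Compounds in non-phytotoxic solvent applied preemergence to sandy loam one day after planting, postemergence at the 1–4 leaf stage, or to ~2.5 cm floodwater over silt loam.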

giant foxtail [1] = assay: Test C preemergence/postemergence greenhouse plant response rating 0 to 100; assay type: in vivo, Setaria faberii; settings: POSTEMERGENCE; for Plant response rating, Giant foxtail: 0 to 100 scale
Method in brief: as §1

cotton = assay: as above; assay type: in vivo, Gossypium hirsutum; settings: POSTEMERGENCE; for Plant response rating, Cotton: 0 to 100 scale
Method in brief: as §1

barnyardgrass [2] = assay: Test B preemergence/postemergence greenhouse plant response rating 0 to 10; assay type: in vivo, Echinochloa crus-galli; settings: 0 to 10 scale
Method in brief: as §2

wild buckwheat = assay: as above; assay type: in vivo, Polygonum convolvulus; settings: 0 to 10 scale
Method in brief: as §2

lambsquarters = assay: as above; assay type: in vivo, Chenopodium album; settings: 0 to 10 scale
Method in brief: as §2

crabgrass = assay: as above; assay type: in vivo, Digitaria spp.; settings: 0 to 10 scale
Method in brief: as §2

cocklebur = assay: as above; assay type: in vivo, Xanthium pensylvanicum; settings: 0 to 10 scale
Method in brief: as §2

rice = assay: Test C flood test plant response rating 0 to 100; assay type: in vivo, Oryza sativa; settings: for Plant response rating (0 to 100), Rice Japonica: under POSTEMERGENCE head (flood test species); for Plant response rating Rice Japonica: flood test species listed under POSTEMERGENCE, 0 to 100 scale
Method in brief: as §3

barnyardgrass [3] = assay: Test C flood test plant response rating 0 to 100; assay type: in vivo, Echinochloa crus-galli; settings: for Plant response rating (0 to 100), Barnyardgrass: under POSTEMERGENCE head (flood test species); for Plant response rating, Barnyardgrass: flood test species listed under POSTEMERGENCE, 0 to 100 scale
Method in brief: as §3

giant foxtail [4] = assay: Test B preemergence/postemergence greenhouse plant response rating 0 to 10; assay type: in vivo, Setaria faberii; settings: 0 to 10 scale
Method in brief: as §2

wild oat [5] = assay: as above; assay type: in vivo, Avena fatua; settings: 0 to 10 scale
Method in brief: as §2

wild oat [6] = assay: Test C preemergence/postemergence greenhouse plant response rating 0 to 100; assay type: in vivo, Avena fatua; settings: POSTEMERGENCE; for Plant response rating, Wild oat: 0 to 100 scale
Method in brief: as §1

SMILES: C#CC(C)Oc1cc(-c2nn3c(c2Cl)CCCC3)c(F)cc1Cl (centres unmarked) [Compound 36]
- Plant response rating Downy Brome (downy brome; 62 g/ha): 40
- Plant response rating Downy Brome (downy brome; 125 g/ha): 50
- Plant response rating (0 to 100), Downy Brome (downy brome; Rate 16 g/ha): 20
- Plant response rating (0 to 100), Downy Brome (downy brome; Rate 31 g/ha): 30
- Plant response rating, Soybean (soybean; 62 g/ha): 80
- Plant response rating, Soybean (soybean; 125 g/ha): 100
- Plant response rating (0 to 100), Soybean (soybean; Rate 16 g/ha): 50
- Plant response rating (0 to 100), Soybean (soybean; Rate 31 g/ha): 50
- Plant response rating, Chickweed (chickweed; 62 g/ha): 80
- Plant response rating, Chickweed (chickweed; 125 g/ha): 100
- Plant response rating (0 to 100), Chickweed (chickweed; Rate 16 g/ha): 70
- Plant response rating (0 to 100), Chickweed (chickweed; Rate 31 g/ha): 80
- Plant response rating, Nutsedge (purple nutsedge; POSTEMERGENCE, Rate 50 g/ha): 4
- Plant response rating, Nutsedge (purple nutsedge; PREEMERGENCE, Rate 50 g/ha): 0
- Plant response rating, Nutsedge (purple nutsedge; Rate 200 g/ha, POSTEMERGENCE): 5
- Plant response rating, Nutsedge (purple nutsedge; Rate 200 g/ha, PREEMERGENCE): 2
- Plant response rating, Rape (rape; 62 g/ha): 100
- Plant response rating, Rape (rape; 125 g/ha): 100
- Plant response rating (0 to 100), Rape (rape; Rate 16 g/ha): 85
- Plant response rating (0 to 100), Rape (rape; Rate 31 g/ha): 90
- Plant response rating (0 to 100), Umbrella sedge (umbrella sedge; Rate 16 g/ha): 0
- Plant response rating (0 to 100), Umbrella sedge (umbrella sedge; Rate 31 g/ha): 20
- Plant response rating Umbrella sedge (umbrella sedge; 62 g/ha): 70
- Plant response rating Umbrella sedge (umbrella sedge; 125 g/ha): 80
- Plant response rating, Giant foxtail (giant foxtail [1]; 62 g/ha): 75
- Plant response rating, Giant foxtail (giant foxtail [1]; 125 g/ha): 85
- Plant response rating (0 to 100), Giant foxtail (giant foxtail [1]; Rate 16 g/ha): 50
- Plant response rating (0 to 100), Giant foxtail (giant foxtail [1]; Rate 31 g/ha): 60
- Plant response rating, Cotton (cotton; 62 g/ha): 100
- Plant response rating, Cotton (cotton; 125 g/ha): 100
- Plant response rating (0 to 100), Cotton (cotton; Rate 16 g/ha): 100
- Plant response rating (0 to 100), Cotton (cotton; Rate 31 g/ha): 100
- Plant response rating, Barnyardgrass (barnyardgrass [2]; POSTEMERGENCE, Rate 50 g/ha): 6
- Plant response rating, Barnyardgrass (barnyardgrass [2]; POSTEMERGENCE, Rate 200 g/ha): 9
- Plant response rating, Barnyardgrass (barnyardgrass [2]; PREEMERGENCE, Rate 50 g/ha): 3
- Plant response rating, Barnyardgrass (barnyardgrass [2]; Rate 200 g/ha, PREEMERGENCE): 5
- Plant response rating, Wild buckwheat (wild buckwheat; POSTEMERGENCE, Rate 50 g/ha): 10
- Plant response rating, Wild buckwheat (wild buckwheat; PREEMERGENCE, Rate 50 g/ha): 10
- Plant response rating, Wild buckwheat (wild buckwheat; Rate 200 g/ha, POSTEMERGENCE): 10
- Plant response rating, Wild buckwheat (wild buckwheat; Rate 200 g/ha, PREEMERGENCE): 10
- Plant response rating, Lambsquarter (lambsquarters; POSTEMERGENCE, Rate 50 g/ha): 10
- Plant response rating, Lambsquarter (lambsquarters; PREEMERGENCE, Rate 50 g/ha): 10
- Plant response rating, Lambsquarter (lambsquarters; Rate 200 g/ha, POSTEMERGENCE): 10
- Plant response rating, Lambsquarter (lambsquarters; Rate 200 g/ha, PREEMERGENCE): 10
- Plant response rating, Crabgrass (crabgrass; POSTEMERGENCE, Rate 50 g/ha): 5
- Plant response rating, Crabgrass (crabgrass; POSTEMERGENCE, Rate 200 g/ha): 7
- Plant response rating, Crabgrass (crabgrass; PREEMERGENCE, Rate 50 g/ha): 5
- Plant response rating, Crabgrass (crabgrass; Rate 200 g/ha, PREEMERGENCE): 9
- Plant response rating, Cocklebur (cocklebur; POSTEMERGENCE, Rate 50 g/ha): 9
- Plant response rating, Cocklebur (cocklebur; POSTEMERGENCE, Rate 200 g/ha): 10
- Plant response rating, Cocklebur (cocklebur; PREEMERGENCE, Rate 50 g/ha): 0
- Plant response rating, Cocklebur (cocklebur; Rate 200 g/ha, PREEMERGENCE): 2
- Plant response rating (0 to 100), Rice Japonica (rice; Rate 16 g/ha): 20
- Plant response rating (0 to 100), Rice Japonica (rice; Rate 31 g/ha): 35
- Plant response rating Rice Japonica (rice; 62 g/ha): 40
- Plant response rating Rice Japonica (rice; 125 g/ha): 50
- Plant response rating (0 to 100), Barnyardgrass (barnyardgrass [3]; Rate 16 g/ha): 100
- Plant response rating (0 to 100), Barnyardgrass (barnyardgrass [3]; Rate 31 g/ha): 100
- Plant response rating, Barnyardgrass (barnyardgrass [3]; 62 g/ha): 100
- Plant response rating, Barnyardgrass (barnyardgrass [3]; 125 g/ha): 100
- Plant response rating, Giant foxtail (giant foxtail [4]; POSTEMERGENCE, Rate 50 g/ha): 6
- Plant response rating, Giant foxtail (giant foxtail [4]; PREEMERGENCE, Rate 50 g/ha): 5
- Plant response rating, Giant foxtail (giant foxtail [4]; Rate 200 g/ha, POSTEMERGENCE): 7
- Plant response rating, Giant foxtail (giant foxtail [4]; Rate 200 g/ha, PREEMERGENCE): 9
- Plant response rating, Wild oat (wild oat [5]; POSTEMERGENCE, Rate 50 g/ha): 5
- Plant response rating, Wild oat (wild oat [5]; PREEMERGENCE, Rate 50 g/ha): 3
- Plant response rating, Wild oat (wild oat [5]; Rate 200 g/ha, POSTEMERGENCE): 6
- Plant response rating, Wild oat (wild oat [6]; 62 g/ha): 30
- Plant response rating, Wild oat (wild oat [6]; 125 g/ha): 50
- Plant response rating (0 to 100), Wild oat (wild oat [6]; Rate 16 g/ha): 10
- Plant response rating (0 to 100), Wild oat (wild oat [6]; Rate 31 g/ha): 20
